In PubChem BioAssay AID504629 (National Center for Advancing Translational Sciences (NCATS), 2011):

System: Caco-2 monolayer permeability, A-to-B, LC-MS/MS
Experiment: Inhibitors of HPGD: Caco-2 Cell Permeability Profiling
Conditions: stronger effect = higher value
From the text: Human 15-Hydroxyprostaglandin dehydrogenase (HPGD) catalyzes the inactivation of prostaglandin E2, and plays a major role in cancer biology by antagonizing the oncogenic potential of cyclooxygenase type 2 (COX2). Assays are available, based on absorbance/fluorescence increase of NADH with the substrate 15-OH prostaglandin E2. This bioassays provides profiling data on Caco-2 cell permeability of leads compounds developed for the HPGD project. This in vitro model is often predictive of in vivo absorption of the compound across the intestinal lining by using a Caco2-cell line and measuring the compound's rate of transport […]. NIH Chemical Genomics Center [NCGC] Structural Genomics Consortium [SGC]
1. Buffer Preparation: Prepare 1M HEPES: add 23.83g HEPES to 100ml of 0.85% NaCl Prepare HBSS+ buffer: add 12.8ml of 1M HEPES in 0.85% NaCl to 500ml HBSS buffer. 2. Take out the compounds from -80 degrees C, ultrasonicate or pre-warm for a few minutes to thaw the compounds. 3. […] The T0, LY and T90, LY plates are read by FlexStation 3 at excitation of 485 nm and emission of 535 nm to determine LY permeability. […]

permeability Papp	SMILES
15 10^-6 cm/s	Cc1cccc(-n2cnc3cc(C(=O)N4CCCCC4)ccc32)c1
21 10^-6 cm/s	Cc1cc(-c2nnc3n2CCCCC3)c(C)n1-c1ccccc1
